Where two headings read alike, the source gives them in different places.

For series [1], the target named is T1, adenosine A1 receptor (Rattus norvegicus, UniProt P25099).
T1 sequence (P25099 1-326): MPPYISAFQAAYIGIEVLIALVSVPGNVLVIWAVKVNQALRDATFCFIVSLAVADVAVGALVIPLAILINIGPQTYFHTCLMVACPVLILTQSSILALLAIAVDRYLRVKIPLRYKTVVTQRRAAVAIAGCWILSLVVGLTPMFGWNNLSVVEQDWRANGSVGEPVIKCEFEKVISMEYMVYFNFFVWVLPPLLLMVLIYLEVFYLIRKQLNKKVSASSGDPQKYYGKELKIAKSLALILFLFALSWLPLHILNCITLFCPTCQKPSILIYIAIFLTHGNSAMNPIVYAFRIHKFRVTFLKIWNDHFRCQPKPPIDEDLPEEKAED
The series can be described thus: Peak bradycardia after bolus intravenous injection in conscious rats. The following applies: bolus intravenous injections. In kind it is in vivo. Set-up: from tissue; host or cells: whole animal (conscious Sprague-Dawley rats). The text has this:
(§1) Concentration dose-effect curve data were fitted to a sigmoid curve using Graphpad PRIZM™ software to obtain the concentration or dose of test compound that produces 50% of the maximal obtainable response, in vitro EC50 or in vivo ED50 values, for activation of the adenosine A1 receptor. Responses measured to each dose were the plateau negative inotropic response to cumulative additions of test compound in the isolated left atria and the peak bradycardia in response to bolus intravenous injections of test compound in conscious rats. Oral bioavailability was estimated from pharmacodynamic responses using the expression: (Response AUCoral/Response AUCiv)(Doseiv/Doseoral), where Response AUC is the area under the curve for test compound-induced bradycardia over time.
(§2) Male Sprague-Dawley rats were anesthetized with sodium pentobarbital 50 mg/kg i.p., and indwelling catheters were surgically implanted in the carotid artery and jugular vein two days prior to each experiment. During all subsequent experiments, rats were conscious and unrestrained. The carotid artery cannula was attached to a pressure transducer and blood pressure was recorded continuously throughout each experiment using a Grass polygraph. Heart rate was derived from the blood pressure signal using a Grass tachygraph. The measured parameters were allowed from 30 to 90 minutes to stabilize before the administration of test compound.
(§3) Test compounds were administered either by oral gavage using a curved, bulbed oral dosing cannula, or by intravenous administration via the jugular vein indwelling catheter. Rats dosed orally were fasted overnight before dosing, with water available ad libitum. Because the heart rate responses following intravenous administration of test compound rapidly returned to baseline, more than one dose of test compound could be administered to each rat. However, the responses to oral administration of test compounds were of a prolonged duration and therefore only a single dose could be administered to each rat.

Series [2] has as its target T1, adenosine A1 receptor. Briefly: Negative inotropic response in electrically stimulated rat isolated left atria (isoproterenol-stimulated). Also noted: from tissue; host or cells: whole animal (conscious Sprague-Dawley rats). The note with it: plateau negative inotropic response, 1 Hz, isoproterenol 10^−8 M.
Description: as §1
Male Sprague-Dawley rats weighing 200-350 grams were sacrificed and the hearts rapidly removed and placed in a warmed Krebs-Henseleit buffer solution. The left atria were dissected free from the hearts and suspended in 30 mL jacketed isolated organ baths filled with Krebs-Henseleit buffer, oxygenated with 95% O2/5% CO2 and maintained at 37° C. Tissues were connected to a force displacement transducer under a resting tension of 1 gram. Atria were stimulated electrically at 1 Hz, 1 msec duration and supramaximal voltage to produce regular contractions of tissue.
Adenosine A1 agonists were added to the baths at increasing cumulative concentrations until a maximal decrease in the force of contraction was obtained. Because adenosine A1 agonists have only a small direct negative inotropic action in rat atria, it was necessary to stimulate β-adrenergic receptors to produce positive inotropy in order to maximize the negative intropic response and thereby facilitate measurement. Under these conditions, adenosine A1 agonists acting at A1 receptors indirectly reduce the β-adrenergic mediated positive inotropy. Accordingly, the β-adrenergic agonist isoproterenol (10^−8 M) was added to the organ baths approximately 15 minutes before the addition of the adenosine A1 agonist.

The nature of series [3]: Oral bioavailability estimated from bradycardia AUC oral vs intravenous in conscious rats. In kind it is in vivo, rat. The following applies: for bioavailability: male, Sprague-Dawley, rat, in vivo.
Description: as §1, §2, §3
A comparison of the area under the bradycardia vs. time curve (AUC) following intravenous administration with the AUC following oral administration was used as a measure of oral bioavailability.

Broadly, the ED50 is the dose at which the effect has come halfway, by size or by number of responders. One may read the EC50 as the concentration at which the effect is half-maximal. For orientation: bioavailability means dose-corrected exposure relative to a reference, in per cent. Take `O=C(NCCO)[C@H]1O[C@@H](n2cnc3c(NC4CCCC4)ncnc32)[C@H](O)[C@@H]1O` [B]: the ED50 on adenosine A1 receptor [1] (rat, read-out: ED50) was 0.0074 µmol/kg. On adenosine A1 receptor [2], this molecule had an EC50 of 11.2 nM. Also, the bioavailability in series [3] is 8.4%.

Regarding `O=C(NC1CC1)[C@H]1O[C@@H](n2cnc3c(NC4CCCC4)ncnc32)[C@H](O)[C@@H]1O` [C, N^6-cyclopentyl-5′-(N-cyclopropyl)carboxamidoadenosine], at adenosine A1 receptor [1] (rat, read-out: ED50), the ED50 was found to be 0.0093 µmol/kg. The 50% effective concentration (EC50) at adenosine A1 receptor [2] worked out at 3.8 nM. Also, the bioavailability in series [3] was 38%.

For the molecule `CNC(=O)[C@H]1O[C@@H](n2cnc3c(NC4CCCC4)ncnc32)[C@H](O)[C@@H]1O` [D, N^6-cyclopentyl-5′-(N-methyl)carboxamidoadenosine], the ED50 at adenosine A1 receptor [1] (rat, read-out: ED50) was found to be 0.0039 µmol/kg. This molecule displayed an EC50 at adenosine A1 receptor [2] of 19.1 nM. The bioavailability in series [3] is 20%.

Regarding `CC(C)NC(=O)[C@H]1O[C@@H](n2cnc3c(NC4CCCC4)ncnc32)[C@H](O)[C@@H]1O` [E], the ED50 on adenosine A1 receptor [1] (rat, read-out: ED50) stood at 0.0034 µmol/kg. On adenosine A1 receptor [2], this molecule returned an EC50 of 11 nM. The bioavailability in series [3] is 28%.

On to `CC(C)(C)NC(=O)[C@H]1O[C@@H](n2cnc3c(NC4CCCC4)ncnc32)[C@H](O)[C@@H]1O` [F, N^6-cyclopentyl-5′-(N-t-butyl)carboxamidoadenosine], for which the ED50 on adenosine A1 receptor [1] (rat, read-out: ED50) is 0.363 µmol/kg. The response at adenosine A1 receptor [2] was half-maximal at 72.4 nM (EC50). For the same molecule, the bioavailability in series [3] is 34%.

On to `CCCNC(=O)[C@H]1O[C@@H](n2cnc3c(NC4CCCC4)ncnc32)[C@H](O)[C@@H]1O` [G], for which, on adenosine A1 receptor [1] (rat, read-out: ED50), the ED50 turned out to be 0.0323 µmol/kg. The molecule further came in with an EC50 at adenosine A1 receptor [2] of 25.1 nM. The bioavailability in series [3] was 14%.

On to `O=C(NCCO)C1OC(n2cnc3c(NC4CC5CCC4C5)ncnc32)C(O)C1O` (stereo not drawn) [H], for which the ED50 on adenosine A1 receptor [1] stood at 0.0034 µmol/kg. On adenosine A1 receptor [2], this molecule yielded a concentration giving a half-maximal response (EC50) of 3.8 nM. In series [3], the “Oral Bioavailability” value was 2.3%.

Turning to `CCNC(=O)[C@H]1O[C@@H](n2cnc3c(NC(CC)CC)ncnc32)[C@H](O)[C@@H]1O` [I, N^6-(3-pentyl)-5′-(N-ethyl)carboxamidoadenosine], on adenosine A1 receptor [1] (rat, read-out: ED50), the ED50 turned out to be 0.0079 µmol/kg. The molecule also yielded an EC50 at adenosine A1 receptor [2] of 7.9 nM. Besides, the bioavailability in series [3] is 20%.

Consider `CCC(CC)Nc1ncnc2c1ncn2[C@@H]1O[C@H](C(=O)NCCO)[C@@H](O)[C@H]1O` [J], for which the ED50 at adenosine A1 receptor [1] (rat, read-out: ED50) stood at 0.0083 µmol/kg. The EC50 at adenosine A1 receptor [2] was determined as 21.8 nM. Besides, the bioavailability in series [3] is 9.9%.
